Test results as given in patent publication US8148421B2, “Phenylacetic acid derivative” (Fuji Yakuhin Co., Ltd., priority 2006, dated 2012).

system: not listed separately; assay: Safety factor (UD30 gastric mucosa injury / ED50 anti-pollakiuria); assay type: in vivo; details: SD, rat, in vivo
Description: Safety factor was obtained in accordance with the following equation using the ED50 value and UD30 value obtained in the tests for the anti-pollakiuria effect in CPA-induced rat pollakiuria model and the gastric mucosa injury induction action by single oral administration in rats, respectively. Safety factor=UD30 value (mg/kg) for gastric mucosa injury induction action by single oral administration in rats/ED50 value (mg/kg) for anti-pollakiuria effect in CPA-induced rat pollakiuria model

SMILES	Safety factor
CC(C(=O)O)c1ccc(CC2CCCC2=O)cc1 (centres unmarked) [Loxoprofen-Na, reference compound]	14

same assay, conditions: UD30 value (mg/kg) / ED50 value (mg/kg), rats

SMILES	Safety factor
C[C@H](C(=O)O)c1ccc(/C=C2\SCC[C@@H]2O)cc1 [Example 19-C, (2S,3′S)-2-{4-[3-Hydroxythiolan-(Z)-2-ylidenemethyl]phenyl}propionic Acid]	138

system: PGE2 production in A549 cells; assay: Suppressing action against PGE2 production in human cultured cells (A549, IL-1β-induced cyclooxygenase 2, arachidonic acid added); assay type: cell-based; details: 10 μM test substance, PGE2 in medium by EIA, duplicate
Procedure: In Vitro Evaluation Method (Suppressing Action Against PGE2 Production in Human Cultured Cells)
A549 cells were inoculated on a 24-well plate (10^5 cells/ml/well), and cultured for 1 day in the Ham's F-12 medium containing 10% fetal bovine serum (FBS). The medium was removed, and the cells were washed with Dulbecco's phosphate buffered saline (PBS), and then cultured for 3 days in the Ham's F-12 medium containing 1 ng/ml of a recombinant human IL-1β and FBS to induce cyclooxygenase 2. After the medium was removed, and the cells were washed with PBS, 0.99 ml of the Ham's F-12 mediums containing a test substance (dissolved in dimethyl sulfoxide at a final concentration of 1% and added) and […] L-glutathione reduced was added to the cells, and the cells were incubated at 37° C. for 30 minutes in a 5% CO2 incubator. To the culture was added 10 μl of a 0.5 mg/ml solution of arachidonic acid in ethanol (final concentration: 5 μg/ml), and the reaction was performed by incubating the culture at 37° C. and 50 rpm for 30 minutes. After completion of the reaction, the medium was immediately collected, and the PGE2 concentration in the medium was measured by using Prostaglandin E2 Express EIA Kit (Cayman Chemical). Dimethyl sulfoxide not containing the test substance was added to a blank and a control, and ethanol not containing arachidonic acid was added to the blank to perform the reaction. The experiment was performed in duplicate. The suppression rate of the test substance based on the control was calculated by using the following equation. Suppression rate (100%)=100×[1−(PGE2 concentration in medium containing test substance−PGE2 concentration in medium of blank)/(PGE2 concentration in medium of control−PGE2 concentration in medium of blank)]

SMILES	PGE2 production suppression rate at 10 μM, Suppression rate (%)
CC(C(=O)O)c1ccc(CC2SCCC2O)cc1 (single isomer, unassigned) [Example 27-A, 2-[4-(3-Hydroxythiolan-2-ylmethyl)phenyl]propionic Acid]	40.0%
CC(C(=O)O)c1ccc(CC2SCCC2O)cc1 (single isomer, unassigned) [Example 27-B, 2-[4-(3-Hydroxythiolan-2-ylmethyl)phenyl]propionic Acid]	76.3%
CC(C(=O)O)c1ccc(CC2CCCC2O)cc1 (centres unmarked) [LXP-2a, reference compound]	92.0%

same assay, conditions: Homo sapiens, A549, 0.5 h, 10 μM test substance, PGE2 in medium by EIA, duplicate, read-out: PGE2 production suppression rate at 10 μM, Suppression rate (%)

SMILES	inhibition at 10 µM
CC(C(=O)O)c1ccc(/C=C2\SCCCC2=O)cc1 (centres unmarked) [Example 4, 2-[4-(3-Oxothian-2-ylidenemethyl)phenyl]propionic Acid]	77.8%
CC(C(=O)O)c1ccc(/C=C2\SCCCC2O)cc1 (centres unmarked) [Example 5, 2-[4-(3-Hydroxythian-2-ylidenemethyl)phenyl]propionic Acid]	68.4%
CC(C(=O)O)c1ccc(CC2CSCC2=O)cc1 (centres unmarked) [Example 8, 2-[4-(4-Oxothiolan-3-ylmethyl)phenyl]propionic Acid]	66.4%
CC(C(=O)O)c1ccc(CC2CSCC2O)cc1 (centres unmarked) [Example 9-A, 2-[4-(4-Hydroxythiolan-3-ylmethyl)phenyl]propionic Acid]	34.7%
CC(C(=O)O)c1ccc(CC2C=CSC2)cc1 (centres unmarked) [Example 10, 2-[4-(2,3-Dihydrothiophen-3-ylmethyl)phenyl]propionic Acid]	69.4%
CC(C(O)=S)c1ccc(CC2CSCC2=O)cc1 (centres unmarked) [Example 11, 2-[4-(4-Oxothiolan-3-ylmethyl)phenyl]thiopropionic Acid]	49.2%
CC(C(=O)OC(C)(C)C)c1ccc(/C=C2\SCCC2=O)cc1 (centres unmarked) [Example 13, tert-Butyl 2-{4-[3-oxothiolan-(Z)-2-ylidenemethyl]phenyl}propionate]	48%
CC(C(=O)O)c1ccc(/C=C2\SCCC2=O)cc1 (centres unmarked) [Example 14, 2-{4-[3-Oxothiolan-(Z)-2-ylidenemethyl]phenyl}propionic Acid]	98.5%
CCOC(=O)C(C)c1ccc(/C=C2\SCCC2=O)cc1 (centres unmarked) [Example 15, Ethyl 2-{4-[3-oxothiolan-(Z)-2-ylidenemethyl]phenyl}propionate]	36.9%
CC(C(=O)O)c1ccc(/C=C2\SCCC2O)cc1 (centres unmarked) [Example 18, 2-{4-[3-Hydroxythiolan-(Z)-2-ylidenemethyl]phenyl}propionic Acid]	99.5%
C[C@H](C(=O)O)c1ccc(/C=C2\SCC[C@@H]2O)cc1 [Example 19-C, (2S,3′S)-2-{4-[3-Hydroxythiolan-(Z)-2-ylidenemethyl]phenyl}propionic Acid]	101%
C[C@@H](C(=O)O)c1ccc(/C=C2\SCC[C@@H]2O)cc1 [Example 19-D, (2R,3′S)-2-{4-[3-Hydroxythiolan-(Z)-2-ylidenemethyl]phenyl}propionic Acid]	44.5%
C[C@H](C(=O)O)c1ccc(/C=C2/C=CCS2)cc1 [Example 20, (2S)-2-[4-(2,5-Dihydrothien-(Z)-2-ylidenemethyl)phenyl]propionic Acid]	94.5%
CC(C(=O)O)c1ccc(/C=C2\CSCC2O)cc1 (centres unmarked) [Example 22, 2-[4-(4-Hydroxythiolan-3-ylidenemethyl)phenyl]propionic Acid]	99.7%
CC(C(=O)O)c1ccc(/C=C2\CSCC2=O)cc1 (centres unmarked) [Example 23, 2-[4-(4-Oxothiolan-3-ylidenemethyl)phenyl]propionic Acid]	102%
CC(C(=O)O)c1ccc(/C=C2\SCCC2(F)F)cc1 (centres unmarked) [Example 25, 2-[4-(3,3-Difluorothiolan-2-ylidenemethyl)phenyl]propionic Acid]	73.3%
CC(C(=O)O)c1ccc(CC2SCCC2=O)cc1 (centres unmarked) [Example 26, 2-[4-(3-Oxothiolan-2-ylmethyl)phenyl]propionic Acid]	79.6%
O=C(O)Cc1ccc(/C=C2\SCCC2=O)cc1 [Example 29, 4-(3-Oxothiolan-2-ylidenemethyl)phenylacetic Acid]	96.8%
O=C(O)Cc1ccc(/C=C2\SCCC2O)cc1 (centres unmarked) [Example 31, 4-(3-Hydroxythiolan-2-ylidenemethyl)phenylacetic Acid]	85.9%
CC(C(=O)O)c1ccc(/C=C2\CCSC2=O)cc1 (centres unmarked) [Example 35, 2-[4-(2-Oxothiolan-3-ylidenemethyl)phenyl]propionic Acid]	44%
CC(C(=O)O)c1ccc(/C=C2/CCCS2)cc1 (centres unmarked) [Example 37, 2-[4-(Thiolan-2-ylidenemethyl)phenyl]propionic Acid]	89.7%
COc1cc(/C=C2\SCCC2O)ccc1C(C)C(=O)O (centres unmarked) [Example 53, 2-[4-(3-Hydroxythiolan-2-ylidenemethyl)-2-methoxyphenyl]propionic Acid]	72.8%
CC(C(=O)O)c1ccc(/C=C2\SCCC2O)c([N+](=O)[O-])c1 (centres unmarked) [Example 57, 2-[4-(3-Hydroxythiolan-2-ylidenemethyl)-3-nitrophenyl]propionic Acid]	91.6%
CC(C(=O)O)c1ccc(/C=C2\SCCC2O)c(F)c1 (centres unmarked) [Example 61, 2-[3-Fluoro-4-(3-hydroxythiolan-2-ylidenemethyl)phenyl]propionic Acid]	92.8%
CC(C(=O)O)c1ccc(/C=C2\SCCC2O)c(Cl)c1 (centres unmarked) [Example 65, 2-[3-Chloro-4-(3-hydroxythiolan-2-ylidenemethyl)phenyl]propionic Acid]	101%
CC(C(=O)O)c1cccc(/C=C2\SCCC2O)c1 (centres unmarked) [Example 69, 2-[3 (3-Hydroxythiolan-2-ylidenemethyl)phenyl]propionic Acid]	22.8%

system: CPA-induced rat pollakiuria model; assay: Anti-pollakiuria effect in cyclophosphamide (CPA)-induced rat pollakiuria model; assay type: in vivo; details: oral administration, male SD rats, CPA 150 mg/kg i.p., urination frequency over 3 hours, probit method
Procedure: 1. Anti-Pollakiuria Effect in Cyclophosphamide (CPA)-Induced Rat Pollakiuria Model
To 7-week old male SD rats, 150 mg/kg of CPA was intraperitoneally administered, and the rats were starved for 24 hours, and then used for the test. Thirty minutes after the oral administration of the test substance, physiological saline (30 ml/kg) was orally administered, the rats were put into a metabolism cage for rats, and then frequency of urination was counted for 3 hours. For the counting of the frequency of urination, a weighing dish hung from an FD pickup was disposed at a urine outlet at the lower part of the metabolism cage, and frequency of urination was obtained based on change of urination volume obtained by a polygraph apparatus. To a control (treated with CPA) and an intact control (no treatment), the solvent was orally administered, and frequency of urination was counted in the same manner. Improvement rate of pollakiuria induced by the CPA treatment relative to the control was calculated in accordance with the following equation, and ED50 value was further calculated by the probit method based on the improvement rate at each dose. Improvement rate (%)=(Urination frequency of control−Urination frequency observed with test substance)/(Urination frequency of control−Urination frequency of intact control)×100

SMILES	ED50
C[C@H](C(=O)O)c1ccc(/C=C2\SCC[C@@H]2O)cc1 [Example 19-C, (2S,3′S)-2-{4-[3-Hydroxythiolan-(Z)-2-ylidenemethyl]phenyl}propionic Acid]	0.1 mg/kg
CC(C(=O)O)c1ccc(CC2CCCC2=O)cc1 (centres unmarked) [Loxoprofen-Na, reference compound]	1.8 mg/kg

system: gastric mucosa; assay: Gastric mucosa injury induction action by single oral administration in rats; assay type: in vivo, rat; details: starved male SD rats, stomach examined after 5 hours, probit method
Procedure: 2. Gastric Mucosa Injury Induction Action by Single Oral Administration in Rats
7-Week old male SD rats were starved for 24 hours, and then used for the test. Five hours after the oral administration of a test substance, the stomach was extracted, and incised along the greater curvature of stomach, and a stomach specimen was fixed in a neutrally buffered 1% formalin solution. The stomach specimen was observed under a stereoscopic microscope, and when specimen had four or more hemorrhagic sores or ulcers having a major axis of 0.5 mm or larger, the result was judged to be positive. […]

SMILES	UD30 value (gastric mucosa injury)
C[C@H](C(=O)O)c1ccc(/C=C2\SCC[C@@H]2O)cc1 [Example 19-C, (2S,3′S)-2-{4-[3-Hydroxythiolan-(Z)-2-ylidenemethyl]phenyl}propionic Acid]	13.8 mg/kg
CC(C(=O)O)c1ccc(CC2CCCC2=O)cc1 (centres unmarked) [Loxoprofen-Na, reference compound]	25.5 mg/kg
